Publication PMC11859181, “Alternaria alternata (Fr) Keissl Crude Extract Inhibits HIV Subtypes and Integrase Drug-Resistant Strains at Different Stages of HIV Replication” (Pharmaceuticals, 2025)
Converted amounts (≈) assume the structure as drawn. Read-outs that look alike come from different tables or passages of the source.

Key:
[1] = system: pNL4.3 (subtype B) HIV-1 virus; test: Luciferase-based antiviral assay, pNL4.3 (wild type); format: cell-based
[2] = system: CM9 (subtype C) HIV-1 virus; test: microbe, parasite or virus in culture; format: cell-based; conditions: Human immunodeficiency virus 1, TZM-bl
[3] = system: MC 2297 (subtype A) HIV-1 virus; test: microbe, parasite or virus in culture; format: cell-based; conditions: Human immunodeficiency virus 1, TZM-bl
[4] = system: PC 148 (subtype A) HIV-1 virus; test: microbe, parasite or virus in culture; format: cell-based; conditions: Human immunodeficiency virus 1, TZM-bl
[5] = system: CM7 (subtype C) HIV-1 virus; test: microbe, parasite or virus in culture; format: cell-based; conditions: Human immunodeficiency virus 1, TZM-bl
[6] = MTT cell viability and cytotoxicity assay; format: cell-based; conditions: human, TZM-bl cells
Experimental: A. alternata crude extract cell cytotoxicity and viability were assessed by MTT (3-[4, 5-dimethylthiazol-2-yl]-2, 5-diphenyltetrazolium bromide) cell viability assay using the CYQUANT MTT cell proliferation kit (Thermo Fisher Scientific, Waltham, MA, USA). A 96-well culture plate was seeded with 15,000 TZM-bl cells/200 µL of DMEM per well and incubated at 37 °C with 5% CO2.). Following this, 10 µL of the drug control azidothymidine (NIH AIDS Research and Reference Reagent Programme) and the A. alternata crude extract were diluted five-fold, and control wells where neither the control drug AZT nor the crude extract was added were followed by incubation at 37 °C with 5% CO2 and 95% humidity for 48 h. Ten microlitres of 12 mM of MTT solution was added to each well and incubated for 4 h at 37 °C with 5% CO2 and 95% humidity. Then, 50 µL of 100% DMSO were added to each well and incubated for 10 min. The absorbance was then measured at a wavelength of 540 nm using the Victor Nivo microplate reader (PerkinElmer, Waltham, MA, USA). The percentage of cell viability was calculated using the formula below:%Cell viability = (Sample absorbance − media control)/(Mean media control absorbance) × 100
The drug control azidothymidine and A. alternata crude extract CC50 (50% cytotoxic concentration) were determined using GraphPad Prism software (v.5) by dose-response curve.

[7] = system: YU2 (subtype B) HIV-1 virus; test: microbe, parasite or virus in culture; format: cell-based; conditions: Human immunodeficiency virus 1, TZM-bl
[8] = system: PC 178 (subtype D) HIV-1 virus; test: microbe, parasite or virus in culture; format: cell-based; conditions: Human immunodeficiency virus 1, TZM-bl
[9] = system: PC 60 (subtype D) HIV-1 virus; test: microbe, parasite or virus in culture; format: cell-based; conditions: Human immunodeficiency virus 1, TZM-bl
[10] = system: integrase drug-resistant strain S230R; conditions: previously reported; cited from earlier work
[11] = system: integrase drug-resistant strain S230R; test: microbe, parasite or virus in culture; format: cell-based, HIV-1; conditions: for IC50: Human immunodeficiency virus 1, TZM-bl, read-out: IC50 (S230R); for inhibition at 300 µg/mL: Human immunodeficiency virus 1, read-out: inhibition of HIV replication; for fold change (FC) S230R: drug-resistant strain IC50/wild-type IC50
[12] = system: integrase drug-resistant strain T66K; parameters: method as in PMID 18625269; conditions: previously reported; cited from earlier work
[13] = system: integrase drug-resistant strain T66K; test: microbe, parasite or virus in culture; format: cell-based, HIV-1; conditions: for IC50: Human immunodeficiency virus 1, TZM-bl, read-out: IC50 (T66K); for inhibition at 300 µg/mL: Human immunodeficiency virus 1, read-out: inhibition of HIV replication; for fold change (FC) T66K: drug-resistant strain IC50/wild-type IC50
[14] = Human immunodeficiency virus 1, read-out: IC50 (WT)

**Q.** With `Cc1cn([C@H]2C[C@H](N=[N+]=[N-])[C@@H](CO)O2)c(=O)[nH]c1=O` [Azidothymidine, azidothymidine] as the molecule, how does the IC50 ([1]; Human immunodeficiency virus 1, TZM-bl) read?
**A.** 0.0338 ± 0.004 µg/mL (≈ 0.126 µM)

**Q.** And the IC50 [2]?
**A.** 0.0924 ± 0.007 µg/mL (≈ 0.346 µM)

**Q.** And the IC50 [3]?
**A.** 0.0138 ± 0.001 µg/mL (≈ 0.0518 µM)

**Q.** What about the IC50 [4] of the same molecule?
**A.** 0.0403 ± 0.002 µg/mL (≈ 0.151 µM)

**Q.** What about the IC50 [5] of the same molecule?
**A.** 0.058 ± 0.009 µg/mL (≈ 0.217 µM)

**Q.** And the viability at 48 h [6]?
**A.** > 80%

**Q.** What about the CC50 at 48 h ([6]; 48 h, triplicate) of the same molecule?
**A.** 385 ± 6.29 µg/mL (≈ 1440 µM)

**Q.** And the IC50 [7]?
**A.** 0.0423 ± 0.004 µg/mL (≈ 0.158 µM)

**Q.** And the IC50 [8]?
**A.** 0.0813 ± 0.003 µg/mL (≈ 0.304 µM)

**Q.** And the IC50 [9]?
**A.** 0.078 ± 0.005 µg/mL (≈ 0.292 µM)

**Q.** Which “FC in susceptibility conferred by S230R mutation” value [10] does the source give for `C[C@@H]1CCO[C@H]2Cn3cc(C(=O)NCc4ccc(F)cc4F)c(=O)c(O)c3C(=O)N12` [Dolutegravir, dolutegravir] here?
**A.** 3.85

**Q.** What about the IC50 [1, 14] of the same molecule?
**A.** 0.175 ± 0.019 µg/mL (≈ 0.418 µM)

**Q.** What about the IC50 [11] of the same molecule?
**A.** 0.383 ± 0.04 µg/mL (≈ 0.914 µM)

**Q.** What about the inhibition at 300 µg/mL [11] of the same molecule?
**A.** 100%

**Q.** And the “fold change (FC) S230R” value [11]?
**A.** 2.166

**Q.** And the “FC conferred by T66K mutation” value [12]?
**A.** 2

**Q.** And the IC50 [13]?
**A.** 0.327 ± 0.031 µg/mL (≈ 0.78 µM)

**Q.** And the inhibition at 300 µg/mL [13]?
**A.** 100%

**Q.** And the “fold change (FC) T66K” value [13]?
**A.** 1.864

**Q.** Which results are given for `Cc1nnc(C(=O)NC(C)(C)c2nc(C(=O)NCc3ccc(F)cc3)c(O)c(=O)n2C)o1` [Raltegravir, raltegravir]?
**A.** FC in susceptibility conferred by S230R mutation [10]: 1.52; IC50 [1, 14]: 0.0364 ± 0.001 µg/mL (≈ 0.082 µM); IC50 [11]: 0.0475 ± 0.0016 µg/mL (≈ 0.107 µM); inhibition at 300 µg/mL [11]: 100%; fold change (FC) S230R [11]: 1.305; FC conferred by T66K mutation [12]: 9.6; IC50 [13]: 0.479 ± 0.078 µg/mL (≈ 1.08 µM); inhibition at 300 µg/mL [13]: 100%; fold change (FC) T66K [13]: 13.15
